As a reminder, the inhibition is the share of the control response that was lost under treatment. Read a high inhibition as a strong effect.

Here are results for 4 compounds from ChEMBL document CHEMBL5696442, “Discovery of type II inhibitors of TGFβ-activated kinase 1 (TAK1) and mitogen-activated protein kinase kinase kinase kinase 2 (MAP4K2)” (J Med Chem, 2015).

Assay [1] has as its target Misshapen-like kinase 1 (Homo sapiens) (UniProt Q8N4C8). Description: Inhibition of ZC3 Lys2 labeling site in human A-375 cells at 0.5 uM by KiNativ Profiling analysis relative to control. The class given is cell-based.
Assay [2] deals with Serine/threonine-protein kinase tousled-like 2 (Homo sapiens) (UniProt Q86UE8). The assay is described as follows: Inhibition of TLK2 Lys1 labeling site in human A-375 cells at 0.05 uM by KiNativ Profiling analysis relative to control. The class given is cell-based.
In assay [3] the target is T1, Serine/threonine-protein kinase STK11 (Homo sapiens) (UniProt Q15831).
T1 sequence (whole entry): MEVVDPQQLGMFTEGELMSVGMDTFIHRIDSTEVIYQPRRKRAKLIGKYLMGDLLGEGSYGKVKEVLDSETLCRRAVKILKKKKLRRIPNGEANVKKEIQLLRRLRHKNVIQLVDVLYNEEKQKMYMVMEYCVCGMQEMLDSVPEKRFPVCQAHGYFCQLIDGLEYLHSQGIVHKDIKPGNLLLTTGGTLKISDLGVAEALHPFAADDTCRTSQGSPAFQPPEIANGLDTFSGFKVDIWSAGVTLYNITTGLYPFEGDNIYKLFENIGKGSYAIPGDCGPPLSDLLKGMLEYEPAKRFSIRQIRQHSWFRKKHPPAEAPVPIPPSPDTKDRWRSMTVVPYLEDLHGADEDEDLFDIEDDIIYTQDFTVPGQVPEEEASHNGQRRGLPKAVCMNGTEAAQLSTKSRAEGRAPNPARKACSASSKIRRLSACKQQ
The assay is described as follows: Inhibition of LKB1 Lys2 labeling site in human A-375 cells at 0.05 uM by KiNativ Profiling analysis relative to control. The assay is classed as cell-based.

For assay [4], the target named is Serine/threonine-protein kinase WNK1 (Homo sapiens) (UniProt Q9H4A3). Description: Inhibition of Wnk1 ATP Loop labeling site in human A-375 cells at 5 uM by KiNativ Profiling analysis relative to control. The class given is cell-based.
Sequence of Serine/threonine-protein kinase WNK1 (Homo sapiens) (Q9H4A3 whole entry, looked up): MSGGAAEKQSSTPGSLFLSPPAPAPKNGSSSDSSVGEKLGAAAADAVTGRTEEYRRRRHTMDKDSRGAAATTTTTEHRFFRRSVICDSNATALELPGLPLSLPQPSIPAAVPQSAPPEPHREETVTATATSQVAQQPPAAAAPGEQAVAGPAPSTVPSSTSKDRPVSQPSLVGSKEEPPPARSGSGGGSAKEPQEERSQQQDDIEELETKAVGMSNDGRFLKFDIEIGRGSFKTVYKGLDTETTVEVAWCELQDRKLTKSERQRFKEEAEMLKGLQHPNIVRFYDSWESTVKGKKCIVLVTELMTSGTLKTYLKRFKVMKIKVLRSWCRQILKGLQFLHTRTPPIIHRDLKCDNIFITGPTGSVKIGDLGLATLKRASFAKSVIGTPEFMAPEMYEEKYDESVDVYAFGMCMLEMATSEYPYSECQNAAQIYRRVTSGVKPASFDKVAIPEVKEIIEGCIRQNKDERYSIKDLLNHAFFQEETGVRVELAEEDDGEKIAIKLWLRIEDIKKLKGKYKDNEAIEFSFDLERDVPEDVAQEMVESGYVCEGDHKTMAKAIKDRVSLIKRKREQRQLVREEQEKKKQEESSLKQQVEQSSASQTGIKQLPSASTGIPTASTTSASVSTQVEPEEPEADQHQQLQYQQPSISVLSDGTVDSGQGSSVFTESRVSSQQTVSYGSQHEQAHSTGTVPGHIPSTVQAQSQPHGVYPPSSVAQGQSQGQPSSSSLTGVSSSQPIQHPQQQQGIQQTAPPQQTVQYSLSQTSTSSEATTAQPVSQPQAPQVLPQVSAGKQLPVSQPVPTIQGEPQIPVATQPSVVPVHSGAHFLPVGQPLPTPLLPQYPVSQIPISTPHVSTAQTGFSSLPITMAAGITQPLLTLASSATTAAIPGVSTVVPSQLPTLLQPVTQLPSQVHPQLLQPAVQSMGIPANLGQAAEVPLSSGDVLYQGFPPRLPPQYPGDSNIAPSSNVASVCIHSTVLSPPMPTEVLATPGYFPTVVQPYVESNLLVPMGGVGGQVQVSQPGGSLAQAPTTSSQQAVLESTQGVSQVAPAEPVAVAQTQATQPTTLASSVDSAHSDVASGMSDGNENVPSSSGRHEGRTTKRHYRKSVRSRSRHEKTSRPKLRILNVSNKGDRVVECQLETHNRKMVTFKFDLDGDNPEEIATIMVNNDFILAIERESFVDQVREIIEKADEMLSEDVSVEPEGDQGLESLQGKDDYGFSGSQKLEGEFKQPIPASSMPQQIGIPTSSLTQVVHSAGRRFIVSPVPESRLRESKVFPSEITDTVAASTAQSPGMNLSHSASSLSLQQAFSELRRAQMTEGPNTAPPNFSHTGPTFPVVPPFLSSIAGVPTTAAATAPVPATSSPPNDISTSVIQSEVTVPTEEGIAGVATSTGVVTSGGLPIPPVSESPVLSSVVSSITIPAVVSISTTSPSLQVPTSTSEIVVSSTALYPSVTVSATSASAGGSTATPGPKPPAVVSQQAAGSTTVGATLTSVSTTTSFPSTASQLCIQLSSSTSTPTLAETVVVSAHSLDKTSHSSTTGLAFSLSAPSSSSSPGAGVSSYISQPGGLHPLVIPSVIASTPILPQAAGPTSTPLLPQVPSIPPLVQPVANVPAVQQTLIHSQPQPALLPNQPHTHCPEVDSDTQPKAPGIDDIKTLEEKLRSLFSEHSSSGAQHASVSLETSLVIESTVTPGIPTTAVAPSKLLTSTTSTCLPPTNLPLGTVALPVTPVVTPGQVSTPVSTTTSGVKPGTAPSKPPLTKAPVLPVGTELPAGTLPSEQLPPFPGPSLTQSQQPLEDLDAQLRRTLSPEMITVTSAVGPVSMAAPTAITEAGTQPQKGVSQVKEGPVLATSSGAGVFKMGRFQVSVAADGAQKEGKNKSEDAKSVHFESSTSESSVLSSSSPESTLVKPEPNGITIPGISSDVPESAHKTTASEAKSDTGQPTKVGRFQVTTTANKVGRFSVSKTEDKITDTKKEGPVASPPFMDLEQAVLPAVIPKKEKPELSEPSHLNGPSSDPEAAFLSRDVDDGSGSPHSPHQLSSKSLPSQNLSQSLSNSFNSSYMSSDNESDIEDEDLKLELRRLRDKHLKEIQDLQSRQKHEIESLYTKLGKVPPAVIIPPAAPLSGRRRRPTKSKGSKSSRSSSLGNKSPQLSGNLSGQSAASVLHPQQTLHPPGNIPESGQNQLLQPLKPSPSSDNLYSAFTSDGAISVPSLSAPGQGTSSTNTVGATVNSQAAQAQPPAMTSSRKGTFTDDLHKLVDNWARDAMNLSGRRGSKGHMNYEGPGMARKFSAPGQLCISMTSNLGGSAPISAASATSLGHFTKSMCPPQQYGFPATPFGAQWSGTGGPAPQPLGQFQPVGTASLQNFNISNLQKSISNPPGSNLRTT
In assay [5] the target is Tyrosine-protein kinase Fer (Homo sapiens, UniProt P16591). The assay is described as follows: Inhibition of FER Lys1 labeling site in human A-375 cells at 0.5 uM by KiNativ Profiling analysis relative to control. The class given is cell-based.
Assay [6] deals with T2, Mitogen-activated protein kinase 13 (Homo sapiens) (UniProt O15264).
T2 sequence (whole entry): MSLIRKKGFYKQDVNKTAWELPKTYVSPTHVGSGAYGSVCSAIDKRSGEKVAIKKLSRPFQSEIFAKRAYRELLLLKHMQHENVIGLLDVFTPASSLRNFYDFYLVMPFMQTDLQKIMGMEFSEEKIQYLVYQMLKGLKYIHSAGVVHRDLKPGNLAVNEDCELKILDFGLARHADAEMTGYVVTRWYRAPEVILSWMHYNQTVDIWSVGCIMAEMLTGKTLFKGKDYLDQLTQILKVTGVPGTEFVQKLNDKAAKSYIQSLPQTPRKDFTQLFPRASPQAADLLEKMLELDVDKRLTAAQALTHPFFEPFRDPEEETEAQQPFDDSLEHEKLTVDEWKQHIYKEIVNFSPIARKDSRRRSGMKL
The assay is described as follows: Inhibition of p38 delta Lys2 labeling site in human A-375 cells at 0.05 uM by KiNativ Profiling analysis relative to control. The class given is cell-based.

In assay [7] the target is Phosphatidylinositol 3-kinase catalytic subunit type 3 (Homo sapiens) (UniProt Q8NEB9). The assay is described as follows: Inhibition of PIK3C3 ATP labeling site in human A-375 cells at 5 uM by KiNativ Profiling analysis relative to control. The class given is cell-based.
Sequence of Phosphatidylinositol 3-kinase catalytic subunit type 3 (Homo sapiens) (Q8NEB9 whole entry): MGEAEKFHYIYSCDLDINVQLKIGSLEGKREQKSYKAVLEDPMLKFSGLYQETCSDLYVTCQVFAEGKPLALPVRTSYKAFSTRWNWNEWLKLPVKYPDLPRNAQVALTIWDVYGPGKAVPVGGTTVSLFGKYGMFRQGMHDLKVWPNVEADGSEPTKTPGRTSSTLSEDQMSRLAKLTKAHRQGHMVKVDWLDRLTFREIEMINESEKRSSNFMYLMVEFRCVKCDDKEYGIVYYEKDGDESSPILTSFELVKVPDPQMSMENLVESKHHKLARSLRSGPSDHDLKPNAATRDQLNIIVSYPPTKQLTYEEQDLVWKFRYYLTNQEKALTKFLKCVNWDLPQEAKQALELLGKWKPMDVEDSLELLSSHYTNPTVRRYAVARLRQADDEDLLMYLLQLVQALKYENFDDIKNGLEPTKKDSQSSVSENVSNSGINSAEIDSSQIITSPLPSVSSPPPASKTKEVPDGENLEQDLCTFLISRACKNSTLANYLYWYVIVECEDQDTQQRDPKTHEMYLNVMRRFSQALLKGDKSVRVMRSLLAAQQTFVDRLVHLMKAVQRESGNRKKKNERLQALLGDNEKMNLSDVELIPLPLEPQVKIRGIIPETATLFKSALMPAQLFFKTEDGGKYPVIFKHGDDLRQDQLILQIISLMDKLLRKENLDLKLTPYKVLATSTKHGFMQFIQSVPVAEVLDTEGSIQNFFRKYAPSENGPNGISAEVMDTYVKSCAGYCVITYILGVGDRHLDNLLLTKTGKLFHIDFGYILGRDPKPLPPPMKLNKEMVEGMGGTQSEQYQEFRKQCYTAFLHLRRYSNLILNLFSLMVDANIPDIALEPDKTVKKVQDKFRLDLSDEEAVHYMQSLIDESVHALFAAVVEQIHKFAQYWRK
Assay [8] deals with T3, Serine/threonine-protein kinase Nek9 (Homo sapiens) (UniProt Q8TD19).
T3 sequence (whole entry): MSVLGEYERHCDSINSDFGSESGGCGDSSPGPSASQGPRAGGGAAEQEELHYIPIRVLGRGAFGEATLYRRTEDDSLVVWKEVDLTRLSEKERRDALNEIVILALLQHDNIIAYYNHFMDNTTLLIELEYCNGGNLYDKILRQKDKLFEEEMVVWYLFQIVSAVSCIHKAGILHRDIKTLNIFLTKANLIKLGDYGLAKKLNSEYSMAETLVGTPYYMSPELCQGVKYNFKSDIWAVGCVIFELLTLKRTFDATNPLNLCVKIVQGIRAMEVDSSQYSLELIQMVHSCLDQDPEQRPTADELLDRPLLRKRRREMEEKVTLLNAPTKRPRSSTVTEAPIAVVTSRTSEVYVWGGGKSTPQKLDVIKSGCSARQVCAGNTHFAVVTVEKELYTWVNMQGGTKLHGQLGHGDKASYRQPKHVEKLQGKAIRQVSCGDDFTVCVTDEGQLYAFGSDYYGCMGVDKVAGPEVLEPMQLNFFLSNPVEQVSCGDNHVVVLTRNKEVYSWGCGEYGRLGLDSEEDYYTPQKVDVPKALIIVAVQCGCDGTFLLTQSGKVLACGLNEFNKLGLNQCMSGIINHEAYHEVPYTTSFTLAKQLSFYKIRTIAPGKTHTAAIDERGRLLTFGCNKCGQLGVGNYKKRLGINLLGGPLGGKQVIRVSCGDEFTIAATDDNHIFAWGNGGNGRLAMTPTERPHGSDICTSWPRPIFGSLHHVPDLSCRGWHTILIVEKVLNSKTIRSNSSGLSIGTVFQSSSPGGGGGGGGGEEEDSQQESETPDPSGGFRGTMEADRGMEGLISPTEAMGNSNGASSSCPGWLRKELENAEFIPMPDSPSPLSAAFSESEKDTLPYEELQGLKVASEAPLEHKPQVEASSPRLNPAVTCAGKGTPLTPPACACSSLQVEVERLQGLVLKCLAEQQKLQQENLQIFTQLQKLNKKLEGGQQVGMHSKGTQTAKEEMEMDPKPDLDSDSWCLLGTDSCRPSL
Description: Inhibition of NEK9 Lys1 labeling site harbouring RTEDDSLVVWKEVDLTR in human A-375 cells at 0.5 uM by KiNativ Profiling analysis relative to control. The assay is classed as cell-based.

Assay [9] addresses Mitogen-activated protein kinase 8 (Homo sapiens, UniProt P45983). Description: Inhibition of JNK1 Lys2 labeling site in human Huh-7 cell lysate at 1 uM by KiNativ Profiling analysis relative to control. The assay is classed as subcellular.

Sequence of Misshapen-like kinase 1 (Homo sapiens) (Q8N4C8 whole entry, looked up): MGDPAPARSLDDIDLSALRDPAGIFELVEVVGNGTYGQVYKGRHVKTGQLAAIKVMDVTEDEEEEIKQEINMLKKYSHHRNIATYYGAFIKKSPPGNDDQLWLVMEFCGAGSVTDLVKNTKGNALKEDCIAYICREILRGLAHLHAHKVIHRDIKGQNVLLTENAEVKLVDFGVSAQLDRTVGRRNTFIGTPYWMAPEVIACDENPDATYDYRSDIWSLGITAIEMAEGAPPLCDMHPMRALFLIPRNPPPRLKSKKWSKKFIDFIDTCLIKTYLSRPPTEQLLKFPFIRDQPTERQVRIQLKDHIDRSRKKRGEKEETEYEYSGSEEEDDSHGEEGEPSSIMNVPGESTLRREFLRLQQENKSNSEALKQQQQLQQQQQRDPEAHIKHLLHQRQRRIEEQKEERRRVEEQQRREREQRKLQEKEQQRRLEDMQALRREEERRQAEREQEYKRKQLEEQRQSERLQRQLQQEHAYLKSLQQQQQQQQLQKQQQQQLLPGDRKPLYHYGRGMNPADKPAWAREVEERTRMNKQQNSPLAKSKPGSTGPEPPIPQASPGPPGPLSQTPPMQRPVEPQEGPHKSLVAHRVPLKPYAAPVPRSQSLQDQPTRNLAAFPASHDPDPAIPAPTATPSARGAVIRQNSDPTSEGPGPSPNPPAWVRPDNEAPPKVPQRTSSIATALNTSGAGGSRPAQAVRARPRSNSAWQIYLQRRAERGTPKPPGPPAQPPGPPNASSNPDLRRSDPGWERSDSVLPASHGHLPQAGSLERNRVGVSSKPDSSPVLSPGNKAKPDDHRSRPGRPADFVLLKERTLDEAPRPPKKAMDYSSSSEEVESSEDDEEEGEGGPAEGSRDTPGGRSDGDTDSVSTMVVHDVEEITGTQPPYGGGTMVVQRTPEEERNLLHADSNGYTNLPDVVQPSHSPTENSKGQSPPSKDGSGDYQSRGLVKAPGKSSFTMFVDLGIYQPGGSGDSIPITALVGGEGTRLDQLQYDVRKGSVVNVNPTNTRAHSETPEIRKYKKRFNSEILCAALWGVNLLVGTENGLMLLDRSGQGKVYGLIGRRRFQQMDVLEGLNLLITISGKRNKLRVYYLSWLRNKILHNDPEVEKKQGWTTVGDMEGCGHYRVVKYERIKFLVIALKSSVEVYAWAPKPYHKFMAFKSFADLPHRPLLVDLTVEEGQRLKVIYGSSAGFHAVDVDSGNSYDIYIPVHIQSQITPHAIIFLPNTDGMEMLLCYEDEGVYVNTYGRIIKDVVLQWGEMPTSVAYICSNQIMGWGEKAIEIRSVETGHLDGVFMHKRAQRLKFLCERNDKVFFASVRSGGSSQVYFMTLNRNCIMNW
Sequence of Mitogen-activated protein kinase 8 (P45983 whole entry): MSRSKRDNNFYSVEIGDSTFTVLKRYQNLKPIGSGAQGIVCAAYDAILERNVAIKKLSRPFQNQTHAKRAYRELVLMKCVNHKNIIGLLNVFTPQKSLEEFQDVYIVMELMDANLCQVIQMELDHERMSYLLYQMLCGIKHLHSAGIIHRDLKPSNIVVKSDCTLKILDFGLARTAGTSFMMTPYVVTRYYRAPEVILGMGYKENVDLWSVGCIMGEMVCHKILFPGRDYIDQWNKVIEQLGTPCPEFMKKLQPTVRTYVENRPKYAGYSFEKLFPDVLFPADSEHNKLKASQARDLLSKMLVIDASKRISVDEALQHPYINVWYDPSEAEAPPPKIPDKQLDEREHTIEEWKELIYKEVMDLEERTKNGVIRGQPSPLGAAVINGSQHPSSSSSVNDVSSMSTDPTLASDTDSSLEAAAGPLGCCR

In the case of `CCN1CCN(Cc2ccc(NC(=O)c3ccc(C)c(/C=C/c4cnc5[nH]ccc5c4OC)c3)cc2C(F)(F)F)CC1`, the inhibition in assay [1] was 48.1%; in assay [2], 17.1%; in [3] it was 28.3%; in assay [4], 13.7%; in [5], 30%; in assay [6], 24.3%. Also, the inhibition in [7] was 35.1%; in assay [8] it was 7%.
The compound `CNc1cc(Oc2cc(C(=O)Nc3cc(-n4cnc(C)c4)cc(C(F)(F)F)c3)ccc2C)ncn1` yielded an inhibition in [9] of 18.4%.
With `CCN1CCN(Cc2ccc(NC(=O)c3ccc(C)c(Oc4ccnc5[nH]ccc45)c3)cc2C(F)(F)F)CC1`, the inhibition in [1] was 70.8%; in assay [2] it was 13.4%; in assay [3] it was 13.1%; in assay [4] it was 13.1%; in assay [5], 87%; in assay [6], 64.9%. The inhibition in [7] was found to be 40.5%; in [8] it was 13.9%.
Regarding `CNc1cc(Oc2cc(C(=O)Nc3cc(N4CCN(C)CC4)cc(C(F)(F)F)c3)ccc2C)ncn1`, the inhibition in assay [9] was 7%.
